According to ChEMBL document CHEMBL1201862, “PubChem BioAssay data set” (2004):
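Where inhibition never reached the appropriate level, the endpoint shown equals the highest concentration tested. Otherwise, values were interpolated linearly from a five-concentration, 48-hour dose response in 96-well plates. Abbreviation: GI50, concentration required for 50% inhibition of growth.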 Calls of active or inactive are those of the source. Cut-off read from the data, not from the text of the source: active = GI50 up to about 1.1 µM and inactive = higher.

Key:
Assay in all cases: DTP human tumour cell line panel, 48 h
NCI-H522 = test system: NCI-H522
KM12 = test system: KM12
CAKI-1 = test system: CAKI-1
RXF 393 = test system: RXF 393
DU-145 = test system: DU-145
NCI-H23 = test system: NCI-H23
UO-31 = test system: UO-31
OVCAR-5 = test system: OVCAR-5
MDA-MB-435 = test system: MDA-MB-435
HCT-116 = test system: HCT-116
K562 = test system: K562
LOX IMVI = test system: LOX IMVI
T47D = test system: T47D
SR = test system: SR
SK-MEL-28 = test system: SK-MEL-28
786-0 = test system: 786-0
U-251 = test system: U-251
ACHN = test system: ACHN
SNB-19 = test system: SNB-19
UACC-62 = test system: UACC-62

Row | SMILES | GI50 (NCI-H522) | GI50 (KM12) | GI50 (CAKI-1) | GI50 (RXF 393) | GI50 (DU-145) | GI50 (NCI-H23) | GI50 (UO-31) | GI50 (OVCAR-5) | GI50 (MDA-MB-435) | GI50 (HCT-116) | GI50 (K562) | GI50 (LOX IMVI) | GI50 (T47D) | GI50 (SR) | GI50 (SK-MEL-28) | GI50 (786-0) | GI50 (U-251) | GI50 (ACHN) | GI50 (SNB-19) | GI50 (UACC-62)
1 | O=C1c2ccccc2C(=O)C2NC(CCCCCSSCCCCCC3=NC4C(=O)c5ccccc5C(=O)C4N3)=NC12 (configuration not stated) | 15 µM (inactive) | 80.9 µM (inactive) | 6.47 µM (inactive) | 22.3 µM (inactive) | > 100 µM (inactive) | 40.2 µM (inactive) | 7.74 µM (inactive) | > 100 µM (inactive) | > 100 µM (inactive) | 14.8 µM (inactive) | > 100 µM (inactive) | > 100 µM (inactive) | > 100 µM (inactive) | 1.48 µM (inactive) | > 100 µM (inactive) | 28.8 µM (inactive) | 17.6 µM (inactive) | 10.4 µM (inactive) |  | 
2 | CC1CCC2(CC1)N=C1CCC(C)CC1C1(CCC(C)CC1)N2 (configuration not stated) | 69.8 µM (inactive) | > 100 µM (inactive) | > 100 µM (inactive) | > 100 µM (inactive) | > 100 µM (inactive) | 95.7 µM (inactive) | > 100 µM (inactive) | > 100 µM (inactive) | > 100 µM (inactive) | 36 µM (inactive) | 30.4 µM (inactive) | > 100 µM (inactive) | 67.3 µM (inactive) | 50.8 µM (inactive) | > 100 µM (inactive) | > 100 µM (inactive) | 78.7 µM (inactive) | > 100 µM (inactive) | > 100 µM (inactive) | > 100 µM (inactive)
3 | COc1ccc(C2C3CCc4ccccc4C3=NN2S(=O)(=O)c2cccc(C(=O)O)c2OC)cc1 (configuration not stated) | 3.19 µM (inactive) | 2.48 µM (inactive) | 22.5 µM (inactive) | 13.1 µM (inactive) | 27.7 µM (inactive) | 52.4 µM (inactive) | 19.4 µM (inactive) | 92.9 µM (inactive) | 1.79 µM (inactive) | 10.3 µM (inactive) | 4.06 µM (inactive) | 12.7 µM (inactive) | 4.83 µM (inactive) | 3.8 µM (inactive) |  | 11.2 µM (inactive) | 7.21 µM (inactive) | 7.83 µM (inactive) | 25.4 µM (inactive) | 6.14 µM (inactive)
4 | CC(C)CC1c2[nH]c3ccccc3c2C[C@H]2C(=O)NC(COC(C)(C)C)C(=O)N12 (some centres not stated) | 16.4 µM (inactive) | 24.1 µM (inactive) | 28.2 µM (inactive) | 14.7 µM (inactive) | 34.5 µM (inactive) | 28.7 µM (inactive) | 32.1 µM (inactive) | 23.6 µM (inactive) | 20.5 µM (inactive) | 18.6 µM (inactive) | 31.7 µM (inactive) | 17.3 µM (inactive) | 13.2 µM (inactive) | 16.4 µM (inactive) | 31.5 µM (inactive) | 32.8 µM (inactive) | 20.4 µM (inactive) | 26.8 µM (inactive) | 33.9 µM (inactive) | 18.2 µM (inactive)
5 | Oc1cccc2c1[nH]c1c(C3=C[C@@]4(O)CC/C=C\CCCCN5CC[C@@H]3[C@]3(CC6/C=C\CCCCN6[C@H]34)C5)nccc12 (some centres not stated) | 1.01 µM (active) | 1.55 µM (inactive) | 1.67 µM (inactive) |  | 1.15 µM (inactive) | 0.912 µM (active) | 1.44 µM (inactive) | 1.07 µM (active) | 0.798 µM (active) | 1.38 µM (inactive) | 0.607 µM (active) | 0.736 µM (active) | 0.804 µM (active) | 0.578 µM (active) | 1.66 µM (inactive) | 0.659 µM (active) | 1.08 µM (active) | 1.1 µM (active) | 2.69 µM (inactive) | 1.47 µM (inactive)
6 | Cn1cc(S(=O)(=O)NC(=O)Nc2ccc(Cl)cc2)c(=O)c2ccc(F)cc21 | 32 µM (inactive) | 47.6 µM (inactive) | > 100 µM (inactive) | > 100 µM (inactive) | > 100 µM (inactive) | > 100 µM (inactive) | > 100 µM (inactive) | > 100 µM (inactive) | > 100 µM (inactive) | > 100 µM (inactive) | > 100 µM (inactive) | 22.6 µM (inactive) | > 100 µM (inactive) | > 100 µM (inactive) | > 100 µM (inactive) | > 100 µM (inactive) | > 100 µM (inactive) | > 100 µM (inactive) | > 100 µM (inactive) | 3.01 µM (inactive)
7 | COC(=O)c1c2c(c3[nH]c4ccccc4c3c1C(=O)OC)C(=O)C1=C(C2=O)C2(Cl)C(Cl)C(Cl)C1(Cl)C2(Cl)Cl (configuration not stated) | 1.38 µM (inactive) | 2.54 µM (inactive) | 3.18 µM (inactive) | 1.71 µM (inactive) | 2.07 µM (inactive) | 1.7 µM (inactive) | 2.82 µM (inactive) | 4.69 µM (inactive) | 1.07 µM (active) | 2.02 µM (inactive) | 2.01 µM (inactive) | 1.85 µM (inactive) | 1.35 µM (inactive) | 0.489 µM (active) | 1.56 µM (inactive) | 2.68 µM (inactive) | 2.42 µM (inactive) | 1.92 µM (inactive) | 3.4 µM (inactive) | 1.99 µM (inactive)
8 | c1coc(-c2nccc3c2[nH]c2ccccc23)c1 | > 100 µM (inactive) | > 100 µM (inactive) | > 100 µM (inactive) | > 100 µM (inactive) | > 100 µM (inactive) | > 100 µM (inactive) |  | > 100 µM (inactive) | > 100 µM (inactive) | > 100 µM (inactive) | > 100 µM (inactive) | > 100 µM (inactive) | > 100 µM (inactive) | > 100 µM (inactive) | > 100 µM (inactive) | > 100 µM (inactive) | > 100 µM (inactive) | > 100 µM (inactive) | > 100 µM (inactive) | > 100 µM (inactive)
9 | COc1ccc2c(c1)-c1[nH]c3ccc(OC)cc3c1CC2 | 4.55 µM (inactive) | 4.86 µM (inactive) | 18.8 µM (inactive) |  | 17.1 µM (inactive) | 12.9 µM (inactive) | 15.2 µM (inactive) | 14.5 µM (inactive) | 17.4 µM (inactive) | 17.1 µM (inactive) | 8.99 µM (inactive) | 15.2 µM (inactive) | 8.05 µM (inactive) | 13.6 µM (inactive) | 16.4 µM (inactive) | 17.5 µM (inactive) | 17.3 µM (inactive) | 19.6 µM (inactive) | 14.8 µM (inactive) | 15.1 µM (inactive)
10 | CSC(=S)CC(O)[C@@H]1CC2c3ccccc3C1c1ccccc12 (some centres not stated) | 2.82 µM (inactive) | 11.3 µM (inactive) |  | 2.19 µM (inactive) | 15.2 µM (inactive) | 7.11 µM (inactive) | 11.7 µM (inactive) | 16.7 µM (inactive) | 11.3 µM (inactive) | 8.11 µM (inactive) | 4.56 µM (inactive) | 6.35 µM (inactive) | 5.5 µM (inactive) | 3.46 µM (inactive) | 21.7 µM (inactive) | 18 µM (inactive) | 3.55 µM (inactive) | 13.6 µM (inactive) | 11.2 µM (inactive) | 12.1 µM (inactive)
11 | CCc1c(CNc2ccc(C(=O)NC(CC(=O)O)C(=O)O)cc2)ccc2nc(N)nc(N)c12 (configuration not stated) | 0.914 µM (active) |  | < 0.0198 µM (active) | > 4.65 µM (inactive) | 0.0125 µM (active) | < 0.0291 µM (active) | 0.75 µM (active) | 1.82 µM (inactive) | < 0.01 µM (active) | < 0.01 µM (active) | < 0.01 µM (active) | < 0.0162 µM (active) | 20.5 µM (inactive) | < 0.01 µM (active) | 10.2 µM (inactive) | < 0.01 µM (active) |  | < 0.01 µM (active) | 2.39 µM (inactive) | < 0.0177 µM (active)
12 | CCCCCCCC1(N=[N+]=[N-])C(=O)c2ccccc2N(C)C1=O (configuration not stated) | 64.9 µM (inactive) | > 100 µM (inactive) | > 100 µM (inactive) | 69.8 µM (inactive) | > 100 µM (inactive) | 48 µM (inactive) |  | > 100 µM (inactive) | 89.9 µM (inactive) | 61 µM (inactive) |  | 97.1 µM (inactive) | 68.9 µM (inactive) | > 100 µM (inactive) | > 100 µM (inactive) | > 100 µM (inactive) | > 100 µM (inactive) | 75 µM (inactive) | > 100 µM (inactive) | 72.9 µM (inactive)
13 | COc1ccc(-c2c(-c3ccccc3)c(C)c3ccccn23)cc1 | 57.7 µM (inactive) | 26.3 µM (inactive) | > 100 µM (inactive) |  | > 100 µM (inactive) | > 100 µM (inactive) | > 100 µM (inactive) | > 100 µM (inactive) | 52.2 µM (inactive) | 72.3 µM (inactive) | 50 µM (inactive) | 83.6 µM (inactive) | 22.8 µM (inactive) | 26.4 µM (inactive) | 79.8 µM (inactive) | > 100 µM (inactive) | > 100 µM (inactive) | > 100 µM (inactive) | > 100 µM (inactive) | > 100 µM (inactive)
14 | O=C(NCCCCCCCCNC(=O)c1cc(-c2ccccc2)nc2ccccc12)c1cc(-c2ccccc2)nc2ccccc12 | 87.7 µM (inactive) |  | > 100 µM (inactive) | 2.48 µM (inactive) | > 100 µM (inactive) | > 100 µM (inactive) | > 100 µM (inactive) | > 100 µM (inactive) | > 100 µM (inactive) | > 100 µM (inactive) | > 100 µM (inactive) | > 100 µM (inactive) | > 100 µM (inactive) | > 100 µM (inactive) | > 100 µM (inactive) | 41.7 µM (inactive) | 35.3 µM (inactive) | > 100 µM (inactive) | 64.9 µM (inactive) | > 100 µM (inactive)
